According to PubChem BioAssay AID449764 (Southern Research Specialized Biocontainment Screening …, 2010):
Where a SMILES comes first, the peptide text is derived from it. [ ]: non-standard residue; d: D form. The star is where a group is joined. ξ: configuration not given here. ξF = NC(Cc1ccccc1)C(=O)O; Cbz = O=C(OCc1ccccc1)*

System: Mycobacterium tuberculosis H37Rv growth inhibition, no glycerol
Assay: Mycobacterium tuberculosis H37Rv growth inhibition, no glycerol, confirmatory dose response (AID 449764);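 note: growth read after 7 days of incubation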
Settings: for IC90: measured here: IC90 growth inhibition

SMILES | IC50 [µM] | IC90 [µM]
CCCOP(=O)(OCCC)c1c([N+](=O)[O-])cc(C(F)(F)F)cc1[N+](=O)[O-] | 5.5 | 7.7
O=C(NNc1nc2ccccc2s1)c1ccccc1F | 39.9 | 59.2
Cc1ccc2c(c1)c(/C=C/c1cc[n+](C)cc1)c(C)n2C | 5.82 | 6.61
CC(OC(=O)COc1ccc(Nc2ccccc2)cc1)C(=O)N(C)c1ccccc1 (centres undefined) | 2.16 | 10.9
CC(C)(C)c1ccc(Cn2nnc3c(=O)[nH]c(C4CCCN(C(=O)Cc5cccs5)C4)nc32)cc1 (centres undefined) | 36 | 46.6
O=C1NN(c2ccc(Br)cc2)C(=O)/C1=C\c1ccc(O)cc1O |  | > 100
Oc1ccc2ccccc2c1N=Nc1nccs1 | 1.96 | 3.06
O=C(CN1CCN(c2nc(-c3ccc(F)cc3)cs2)CC1)NCc1ccc2c(c1)OCO2 | 38.1 | 55.6
CN1C(=O)/C(=C/c2ccccc2Cl)Sc2ccc(C(=O)NCc3cccnc3)cc21 | 50.6 | 89.8
CN1OC(COC(=O)c2ccc(Cl)cc2Cl)CC1c1ccccc1 (centres undefined) | 7.6 | 22.3
N#C/C(N=Nc1ccccc1O)=N\Nc1ccccc1O | 2.25 | 3.64
CCSc1ccc2c(c1)N(CCCN1CCN(C)CC1)c1ccccc1S2 | 23.1 | 27.2
O=c1c(C=Nc2ccc(Oc3ccccc3)cc2)c[nH]n1-c1cccc(Cl)n1 | 23.3 | > 100
CC(C)NC(=O)c1onc(CSc2ccc(F)c(F)c2)c1C(=O)O | 17.8 | 22.9
O=C(NC(=S)Nc1cccc2cccnc12)c1ccccc1 | 56.9 | > 100
CC(=O)c1c(C)n(C)c2ccc(OC(=O)c3ccc([N+](=O)[O-])cc3)cc12 | 19.8 | > 100
O=[N+]([O-])c1cccnc1N1CCC(c2cc(-c3cccc(C(F)(F)F)c3)n[nH]2)CC1 | 21.5 | 34.4
COc1ccccc1C1CC(c2c(-c3ccccc3)c3cc(Cl)ccc3[nH]c2=O)=NN1S(C)(=O)=O (centres undefined) |  | > 100
Cc1ccc2c(c1)c1c3n2CCN=C3CCC1 | 10.5 | 16
Cc1[nH]c2ccccc2c1C(=O)COC(=O)c1ccc([N+](=O)[O-])s1 | 1.32 | 3.24
CNc1ccc2nc3ccccc3[n+](C)c2c1 | 1.16 | 1.68
COc1cc(OC)nc(-n2ncc(Br)c(Br)c2=O)n1 | 22.5 | 25.1
O=C(NCCC1=CCCCC1)NC12CC3CC(CC(C3)C1)C2 | < 0.2 | 1.58

SMILES | IC50 [µM] | IC90 [µM]
O=C(Nc1ccc(Cl)cc1)N1CCN(c2ccc3nnc(-c4ccc(F)cc4)n3n2)CC1 | 18.9 | 51.8
Cc1ccc(OC(=O)CCN2C(=O)c3ccccc3C2=O)cc1C | 85.1 | > 100
N#CC1=C(c2ccccc2)/C(=C/c2ccccc2)OC1=O | 11.6 | 23.2
CN(C)CCNc1ncnc2c1sc1nc(-c3ccccc3)c3c(c12)CCCC3 | 22.5 | 24.2
CCCC[C@@H](CN[C@H](C)CNC)NCC1CCC(C(C)(C)C)CC1 (some centres undefined) | 23.2 | 26.4
CC(=O)c1cccc(NC(=O)C2C3C=CC(C3=C(c3ccccc3)c3ccccc3)C2C(=O)O)c1 (centres undefined) |  | > 50
O=C(C1=C[C@@H](c2csc3ccccc23)C[C@@H](OCCCCO)O1)N1CCN(Cc2ccc3c(c2)OCO3)CC1 | 33.9 | 53.6
Cc1cc(N2CCN(c3ccc(C(F)(F)F)cc3[N+](=O)[O-])CC2)c2ccccc2n1 | 22.2 | 24.9
CCOC(=O)c1ccc(-c2c(-c3ccc4c(c3)OCO4)noc2C)cc1F | 53.5 | > 100
CCOC(=O)C(/C=C(\C#N)C(=O)OCC)=C(/N)N1CCN(c2ccc(Cl)cc2)CC1 | 11.9 | > 25
COC(=O)C(C)Oc1ccc(-c2nccc(-c3ccccn3)n2)cc1 (centres undefined) | 3.91 | 6.95
COCCOC(=O)c1ccc(NC(=O)COc2ccc([N+](=O)[O-])cc2)cc1 |  | > 100
Oc1cc(NCc2cccnc2)ccc1-c1nc2ccccc2o1 | 31.6 | 61.3
Nc1nc(Cl)cc(N2CCC(c3cc(-c4ccc(Cl)cc4Cl)n[nH]3)CC2)n1 | 25.9 | 30.1
COc1cccc2sc3ccc(C#CC4(N)CCCCC4)cc3c(=O)c12 | 73.8 | > 100
Cc1nonc1NC(=O)CSc1ccc(-c2ccccc2)nn1 | 41.2 | 58.9
COc1ccc(-c2cc(C3CCN(Cc4cccc(C(F)(F)F)c4)CC3)[nH]n2)cc1 | 13.3 | 24.9
CC(C)c1ccc(N2C(=O)NC(=O)/C(=C\C=C\c3ccco3)C2=O)cc1 | 44.5 | 49.7
Cn1c(NC(=S)Nc2ccccc2)nc2ccccc21 | 5.8 | 6.33
c1ccc(-c2c3ccccc3nc3[nH]c4ccccc4c23)cc1 | 96.3 | > 100
O=C(NC(=S)Nc1ccc(N2CCCCC2)c(Cl)c1)c1cccs1 | 21.2 | 29.2
CCN=c1scc(-c2ccco2)n1/N=C/c1ccc(OC)c(O)c1 | 23.2 | 35.1
O=c1cc2[nH]c3ccccc3c(=O)n2nc1-c1ccccc1 | 10.4 | 15

SMILES | IC50 [µM] | IC90 [µM]
CCOC(=O)COc1ccc(S(=O)(=O)NCCC2=CCCCC2)cc1 | 22.7 | 25.9
CCOC(=O)CNC(=O)C(Cc1ccccc1)NC(=O)OCc1ccccc1 (centres undefined) (Cbz-[ξF]-Gly-OEt) | 3.04 | 3.46
O=C(CN1CCCCC1)Nc1nnc(-c2ccc([N+](=O)[O-])cc2)s1 | 44.9 | 69.6
CCCn1c(CC)nc([N+](=O)[O-])c1S(=O)(=O)c1ccccc1 | 18.2 | 23.6
CCOC(=O)C(C)Sc1nc(-c2cccs2)ccc1C#N (centres undefined) | 44.2 | 50.3
O=C1NCN(c2ccccc2)C12CCN(CCCC(c1ccc(F)cc1)c1ccc(F)cc1)CC2 | 43.2 | 49.2
Cc1noc(C)c1COc1ccc(C(=O)OCC(=O)NC23CC4CC(CC(C4)C2)C3)cc1 | 23.9 | 35.5
CSc1nsc(SCC(=O)Nc2ccc(F)cc2F)n1 | 88.7 | 98.9
S=c1nc2ccccc2c2nc(-c3ccccc3)[nH]n12 | 17.6 | 24.5
Oc1ccccc1-c1nnc(COc2ccccc2)o1 | 19 | 28.9
Cc1cc2nc(C3CCN(CC4COc5ccccc5O4)CC3)[nH]c2cc1C (centres undefined) | 17.8 | 28.7
O=C1Nc2ccc(Br)cc2/C1=C/C(=O)c1ccc2c(c1)OCO2 | 18.1 | 23.7
Cc1cc(-c2nnc3n2CCCCC3)c(C)n1-c1ccccc1 | 45.3 | 73.8
O=C(/C=C/c1ccco1)Oc1ccc(C(=S)N2CCOCC2)cc1 | 60.3 | > 100
Cc1ccc(CN2CC(C(=O)OCc3ccccc3Cl)CC2=O)cc1 (centres undefined) | 11.1 | 29.6
O=C(Nc1nc2ccc(F)cc2s1)C1CCN(S(=O)(=O)c2cc([N+](=O)[O-])ccc2Cl)CC1 | 12 | 17.6
Brc1ccc(-c2nc3ncccn3c2Nc2ccc3c(c2)OCCO3)o1 | 90.7 | > 100
O=C1C(=O)N(c2ccccc2)c2ccccc21 | 17.8 | 34
Cc1ccc(-c2ccnc(=S)[nH]2)cc1 | 55.9 | > 100
CCCCN(C)C(=O)Cc1c(OC)ccc2cc(Br)ccc12 | 24.4 | 33.5
O=c1cc(N=Nc2ccc(Cl)cc2)[nH]c(=O)[nH]1 | 78.9 | > 100
NC(=S)N=Nc1ccc(NN=C(N)N)cc1 | 19.3 | 27.6
CCN(CC)S(=O)(=O)c1ccc2[nH]cc(C(=O)NCCC3=CCCCC3)c(=O)c2c1 | 91.7 | > 100

SMILES | IC50 [µM] | IC90 [µM]
O=C(Nc1ccc(C2=NCCN2)cc1)c1ccc(Cl)c(C(=O)Nc2ccc(C3=NCCN3)cc2)c1 | 22.7 | 25.4
CCCCC(=O)/C=C/n1c(=S)oc2ccccc21 |  | > 100
COc1ccccc1OCCN1CSC(=S)N(C)C1 | 17.8 | 23.9
COC(=O)c1cc(Sc2cccc(Cl)c2Cl)ccn1 | 29 | 40.5
COc1ccc(-c2nc(NC(=O)Cn3ccc(C(F)(F)F)n3)sc2C)cc1 | 44.6 | 50.4
CCCCN1C(=N)N([C@@H](CCC)CN2CCC[C@H]2CN2C(N)=NC[C@@H]2Cc2ccccc2)C[C@H]1Cc1ccccc1 | 23.9 | 27.6
C[C@@H]1CN([C@H](C)CO)C(=O)c2cc(NC(=O)Nc3ccc(C(F)(F)F)cc3)ccc2O[C@H]1CN(C)S(=O)(=O)c1cccs1 | 21.7 | 24.1
Cc1nn(Cc2ccccc2)c(C)c1NC(=O)c1cc2nc(-c3ccco3)cc(C(F)(F)F)n2n1 | 45.8 | 49.6
N#Cc1cccc2c1-c1ccccc1/C2=N/NC(N)=O |  | > 100
CC1(C)CC(=O)C2=C(C1)NC(Nc1nc3ccccc3o1)=NC2c1ccccn1 (centres undefined) | 2.99 | 6.27
O=c1c(C=NCCN2CCNCC2)c(O)n(C2CCCCC2)c(=O)n1C1CCCCC1 | 28.4 | 32.5
C1=C(c2c[nH]c3ccccc23)CCNC1 | 56.5 | 73.9
c1ccc(-c2nnc(-c3ccccn3)nn2)nc1 | 6.07 | 6.86
COc1ccccc1N(C)S(=O)(=O)c1ccc(C(=O)Nc2ccc3nc(C)sc3c2)cc1 | 51.1 | 99.8
CC(=O)C1=C(C)NC(SCC(=O)c2ccc(F)cc2)=C(C#N)C1c1ccco1 (centres undefined) | 32.7 | 49.8
O=C(Nc1cccc(-c2nc3ccccc3s2)c1)c1cc(-n2cnnc2)ccc1Cl | 14 | 22
CCCOc1ccc(C(=O)NC(=S)NCc2cccnc2)cc1 | 35.1 | 45.7
C/C(=N\Nc1ccc([N+](=O)[O-])cc1)c1cccc(N)c1 | 61.2 | 88.9
CCOC(=O)CSc1nc(N)c(C(=O)Nc2ccc(N(C)C)cc2)s1 | 4.23 | 9.77
CN1CCc2cc3c(c4c2C1Cc1ccccc1-4)OCO3 (centres undefined) | 2.35 | 3.03
C=CCNC(=O)c1onc(CCl)c1C(=O)OC | 5.76 | 14.2
